{
  "source": "paper doi:10.1101/2024.02.29.582594",
  "about": "“Hachiman is a genome integrity sensor” (bioRxiv, 2024)",
  "biological_target": "T1, HamB (Escherichia coli, UniProt A0A426EXV0)",
  "T1 construct": "gene DU321_04165; full-length HamB alone, N-terminal 10xHis-MBP-TEV, tag cut with TEV; expressed in E. coli BL21-AI",
  "T1 sequence (A0A426EXV0 1-1174)": "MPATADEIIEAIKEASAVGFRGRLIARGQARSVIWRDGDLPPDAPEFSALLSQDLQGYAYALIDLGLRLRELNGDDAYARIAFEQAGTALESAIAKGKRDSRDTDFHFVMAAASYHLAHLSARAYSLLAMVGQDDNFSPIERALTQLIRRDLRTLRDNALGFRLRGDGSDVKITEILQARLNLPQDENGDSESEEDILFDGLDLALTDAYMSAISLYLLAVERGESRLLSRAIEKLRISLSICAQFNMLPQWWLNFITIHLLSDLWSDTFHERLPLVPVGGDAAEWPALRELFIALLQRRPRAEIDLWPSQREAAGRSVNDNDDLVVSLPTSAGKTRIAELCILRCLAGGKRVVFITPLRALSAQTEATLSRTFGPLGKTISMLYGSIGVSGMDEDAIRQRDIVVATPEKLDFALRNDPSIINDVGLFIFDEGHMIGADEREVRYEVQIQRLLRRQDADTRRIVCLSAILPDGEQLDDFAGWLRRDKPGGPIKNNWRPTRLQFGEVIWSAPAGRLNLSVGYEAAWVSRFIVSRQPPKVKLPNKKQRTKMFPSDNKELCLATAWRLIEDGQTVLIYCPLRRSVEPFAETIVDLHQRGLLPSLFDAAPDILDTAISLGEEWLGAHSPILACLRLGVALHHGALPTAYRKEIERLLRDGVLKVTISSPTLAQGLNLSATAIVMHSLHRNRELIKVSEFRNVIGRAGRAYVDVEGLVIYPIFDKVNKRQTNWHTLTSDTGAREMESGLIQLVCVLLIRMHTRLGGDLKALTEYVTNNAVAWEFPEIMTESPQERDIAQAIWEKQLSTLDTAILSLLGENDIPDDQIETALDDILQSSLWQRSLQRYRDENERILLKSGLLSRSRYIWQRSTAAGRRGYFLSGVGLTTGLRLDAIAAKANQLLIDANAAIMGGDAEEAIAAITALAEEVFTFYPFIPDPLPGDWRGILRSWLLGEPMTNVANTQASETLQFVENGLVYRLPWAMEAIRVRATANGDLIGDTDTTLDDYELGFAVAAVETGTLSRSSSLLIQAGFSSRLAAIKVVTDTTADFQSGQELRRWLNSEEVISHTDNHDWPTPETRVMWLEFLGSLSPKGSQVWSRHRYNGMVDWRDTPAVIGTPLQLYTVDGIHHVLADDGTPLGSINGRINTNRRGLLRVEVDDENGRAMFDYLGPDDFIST",
  "assay": "malachite green phosphate release assay",
  "assay_type": "biochemical",
  "conditions": "40 nM HamB, 100 nM ssDNA, 1 mM ATP, 2 mM MgSO4, pH 8.8, 37 °C, 30 min",
  "data": [
    {"smiles": "Nc1ncnc2c1ncn2[C@@H]1O[C@H](COP(=O)(O)OP(=O)(O)OP(=O)(O)O)[C@@H](O)[C@H]1O", "note": "[ATP]", "values": [
      {"measurement": "malachite green phosphate release assay", "result": "we found strong HamB ATPase activity in the presence of single-stranded DNA"}
    ]}
  ]
}
